Measured values reported in paper PMC7429991 (Journal of medicinal chemistry, 2020).
Counter-ions that a name gives are not always drawn.

How the values were obtained:
[1] = from PAMPA-BBB Pe
[2] = biological target: rat nNOS (rnNOS) (Rattus norvegicus, UniProt P29476)
[3] = biological target: H3 receptor (Homo sapiens, UniProt Q9Y5N1); test: PDSP off-target binding, H3 receptor
[4] = tested on: panel of 45 pharmacologically relevant CNS targets and receptors; test: PDSP off-target radioligand displacement screen; type: binding; conditions: for PDSP targets classified moderate / PDSP targets classified insignificant / PDSP targets classified weak / PDSP targets classified Concerning: number of 45 targets; for PDSP targets classified moderate: 100–300 nM; for PDSP targets classified insignificant: <50% bound at 10 μM; for PDSP targets classified weak: >300 nM; for fraction of concerning or moderate hits: PDSP panel
[5] = biological target: human iNOS (hiNOS) (Homo sapiens, UniProt P35228); conditions: read-out: Ki hiNOS; purified human iNOS; Ki from IC50 (Cheng-Prusoff)
[6] = biological target: human eNOS (heNOS) (Homo sapiens, UniProt P29474)
[7] = biological target: D597N rnNOS (Rattus norvegicus, UniProt P29476, D597N)
[8] = biological target: H2 receptor (Homo sapiens, UniProt P25021); test: PDSP off-target binding, H2 receptor
Sequence of H2 receptor (P25021 whole entry): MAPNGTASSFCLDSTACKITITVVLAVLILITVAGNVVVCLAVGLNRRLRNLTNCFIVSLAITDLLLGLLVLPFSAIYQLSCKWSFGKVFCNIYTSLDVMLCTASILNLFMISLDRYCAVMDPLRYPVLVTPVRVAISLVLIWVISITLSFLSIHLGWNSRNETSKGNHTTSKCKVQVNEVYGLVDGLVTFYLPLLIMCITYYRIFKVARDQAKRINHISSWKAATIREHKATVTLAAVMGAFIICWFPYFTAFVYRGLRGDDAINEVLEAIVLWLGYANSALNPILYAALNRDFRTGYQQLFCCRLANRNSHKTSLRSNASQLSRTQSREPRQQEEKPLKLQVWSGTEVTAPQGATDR

[9] = biological target: M336V/D597N rnNOS (Rattus norvegicus, UniProt P29476, D597N/M336V); conditions: M336V/D597N vs D597N rnNOS
Sequence of M336V/D597N rnNOS (P29476 whole entry M336V/D597N): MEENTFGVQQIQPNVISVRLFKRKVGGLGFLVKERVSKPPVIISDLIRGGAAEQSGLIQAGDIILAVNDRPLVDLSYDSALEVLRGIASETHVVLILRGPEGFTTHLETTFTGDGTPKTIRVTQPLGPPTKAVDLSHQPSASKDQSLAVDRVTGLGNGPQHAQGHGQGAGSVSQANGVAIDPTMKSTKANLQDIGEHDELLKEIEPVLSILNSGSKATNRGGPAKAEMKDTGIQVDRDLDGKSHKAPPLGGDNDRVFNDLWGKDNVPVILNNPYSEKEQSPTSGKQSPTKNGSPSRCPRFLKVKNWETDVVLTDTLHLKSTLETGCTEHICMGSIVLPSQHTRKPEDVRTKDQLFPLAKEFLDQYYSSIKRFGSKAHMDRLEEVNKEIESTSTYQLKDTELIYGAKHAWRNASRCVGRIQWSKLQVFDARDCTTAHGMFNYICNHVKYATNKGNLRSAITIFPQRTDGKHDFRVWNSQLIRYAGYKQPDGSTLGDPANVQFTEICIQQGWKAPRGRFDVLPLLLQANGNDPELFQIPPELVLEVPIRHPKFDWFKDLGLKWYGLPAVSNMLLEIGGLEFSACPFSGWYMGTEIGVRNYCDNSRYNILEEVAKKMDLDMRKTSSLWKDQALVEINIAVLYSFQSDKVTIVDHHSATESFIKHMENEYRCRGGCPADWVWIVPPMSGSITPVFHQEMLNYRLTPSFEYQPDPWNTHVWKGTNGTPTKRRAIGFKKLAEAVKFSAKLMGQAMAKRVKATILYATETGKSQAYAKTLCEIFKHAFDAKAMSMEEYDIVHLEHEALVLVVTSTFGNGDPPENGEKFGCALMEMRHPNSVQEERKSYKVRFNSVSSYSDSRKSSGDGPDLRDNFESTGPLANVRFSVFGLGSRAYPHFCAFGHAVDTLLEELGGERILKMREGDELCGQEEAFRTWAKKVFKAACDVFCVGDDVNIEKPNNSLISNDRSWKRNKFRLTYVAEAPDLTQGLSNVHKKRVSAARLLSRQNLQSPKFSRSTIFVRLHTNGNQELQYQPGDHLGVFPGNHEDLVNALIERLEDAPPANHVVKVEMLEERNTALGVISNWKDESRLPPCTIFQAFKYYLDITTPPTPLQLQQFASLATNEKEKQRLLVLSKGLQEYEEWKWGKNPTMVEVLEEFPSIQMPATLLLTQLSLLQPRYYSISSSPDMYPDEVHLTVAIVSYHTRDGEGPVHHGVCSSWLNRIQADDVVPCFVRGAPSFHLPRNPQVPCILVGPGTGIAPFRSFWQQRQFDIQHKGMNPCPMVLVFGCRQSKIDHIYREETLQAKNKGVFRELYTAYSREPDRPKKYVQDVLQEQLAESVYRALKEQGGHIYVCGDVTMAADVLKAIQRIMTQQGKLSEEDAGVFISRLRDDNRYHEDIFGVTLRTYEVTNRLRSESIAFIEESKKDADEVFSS

Sequence of H3 receptor (Q9Y5N1 whole entry): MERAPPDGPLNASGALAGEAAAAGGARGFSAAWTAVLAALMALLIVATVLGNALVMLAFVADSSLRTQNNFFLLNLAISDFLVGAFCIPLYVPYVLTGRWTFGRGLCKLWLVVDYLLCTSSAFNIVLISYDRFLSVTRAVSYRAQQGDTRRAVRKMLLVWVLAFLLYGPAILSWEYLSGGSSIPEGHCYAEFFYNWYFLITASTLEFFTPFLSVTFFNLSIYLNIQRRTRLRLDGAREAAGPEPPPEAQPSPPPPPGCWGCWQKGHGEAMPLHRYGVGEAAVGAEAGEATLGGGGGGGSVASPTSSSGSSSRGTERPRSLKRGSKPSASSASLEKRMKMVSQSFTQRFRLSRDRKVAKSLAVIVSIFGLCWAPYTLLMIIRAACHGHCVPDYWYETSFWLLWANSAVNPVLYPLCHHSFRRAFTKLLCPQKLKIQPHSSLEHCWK

## NCCc1ccc(O)c(O)c1 [dopamine, reference compound]
[1]
  prediction (CNS): CNS (−)

## Cc1cc(N)nc2cc(-c3cncc(CN)c3)ccc12.Cl.Cl.Cl [compound 15, 7-(5-(Aminomethyl)pyridin-3-yl)-4-methylquinolin-2-amine Trihydrochloride]
[2]; relative to 12
  less potent than 12 in rnNOS: approximately 5 fold

## Cc1cc(N)nc2cc(-c3ccc(OCC4CC4)c(CN)c3)ccc12 [compound 29, 7-(3-(Aminomethyl)-4-(cyclopropylmethoxy)phenyl)-4-methylquinolin-2-amine Dihydrochloride]
[1]
  prediction (CNS): CNS (+) (classified as a “CNS (+)” molecule if its effective permeability (Pe) in this assay is larger than 4.0 × 10^–6 cm s^–1)
[3]
  off-target binding class, H3 receptor: concerning (concerning (Ki < 100 nM, or <~2 × nNOS Ki value))
[4]
  PDSP targets classified moderate: 4
  PDSP targets classified insignificant: 13
  PDSP targets classified weak: 27
[4]; Ki < 100 nM
  PDSP targets classified Concerning: 1

## CNCCc1ccc(-c2ccc3c(C)cc(N)nc3c2)cc1.Cl.Cl [compound 6, 4-Methyl-7-(4-(2-(methylamino)ethyl)phenyl)quinolin-2-amine Dihydrochloride]
[2]; relative to 5
  loss in rnNOS activity: > 2 fold

## Cc1cc(N)nc2cc(-c3ccc(OCc4ccccn4)c(CN)c3)ccc12 [compound 32, 7-(3-(Aminomethyl)-4-(pyridin-2-ylmethoxy)phenyl)-4-methylquinolin-2-amine Trihydrochloride]
[4]
  fraction of concerning or moderate hits: 11 /45
  PDSP targets classified insignificant: 12
  PDSP targets classified weak: 22
[4]; […]
  PDSP targets classified Concerning: 4

## 7-(3-(2-Aminoethyl)phenyl)-4-methylquinolin-2-amine Dihydrochloride [compound 12]
[1]
  prediction (CNS): CNS (+) (classified as a “CNS (+)” molecule if its effective permeability (Pe) in this assay is larger than 4.0 × 10^–6 cm s^–1)
[5]
  Ki: 29.9 µM
HLM without NADPH, pH 7.4
  % remaining at 60 min (- NADPH): 87%
Buffer control
  % remaining at 60 min (Buffer): 67%
In vitro intrinsic clearance, HLM
  CLint: 8 mL/min/kg
[6]; read-out: Ki heNOS, purified human eNOS, Ki calculated from IC50
  Ki: 52.6 µM
[7]; read-out: Ki D597N rnNOS, single mutant (SM) of rat nNOS
  Ki: 0.416 µM
[7]; versus wild type
  decrease in potency, D597N mutant: 8 fold
[8]
  off-target binding class, H2 receptor: concerning (concerning (Ki < 100 nM, or <~2 × nNOS Ki value))

## Cc1cc(N)nc2cc(-c3ccc(OCc4cocn4)c(CN)c3)ccc12 [compound 36, 7-(3-(Aminomethyl)-4-(oxazol-4-ylmethoxy)phenyl)-4-methylquinolin-2-amine Trihydrochloride]
[9]
  increased potency against the double mutant (versus the single mutant): 5 fold

## Cc1cc(N)nc2cc(-c3ccc(OCc4cncs4)c(CN)c3)ccc12 [compound 37, 7-(3-(Aminomethyl)-4-(thiazol-5-ylmethoxy)phenyl)-4-methylquinolin-2-amine Trihydrochloride]
[1]
  prediction (CNS): CNS (+) (classified as a “CNS (+)” molecule if its effective permeability (Pe) in this assay is larger than 4.0 × 10^–6 cm s^–1)

## Cc1cc(N)nc2cc(-c3ccc(OCc4cccnc4)c(CN)c3)ccc12 [compound 33, 7-(3-(Aminomethyl)-4-(pyridin-3-ylmethoxy)phenyl)-4-methylquinolin-2-amine Trihydrochloride]
[1]
  prediction (CNS): CNS (+) (classified as a “CNS (+)” molecule if its effective permeability (Pe) in this assay is larger than 4.0 × 10^–6 cm s^–1)
[6]; 33 versus 32
  improvement in binding affinity toward heNOS: 3 fold
[4]
  fraction of concerning or moderate hits: 8 /45
  PDSP targets classified moderate: 5
  PDSP targets classified insignificant: 20
  PDSP targets classified weak: 17
[4]; […]
  PDSP targets classified Concerning: 3

## Cc1cc(N)nc2cc(-c3ccc(CN)cc3)ccc12.Cl.Cl [compound 7, 7-(4-(Aminomethyl)phenyl)-4-methylquinolin-2-amine Dihydrochloride]
[2]; relative to 5
  increase in rnNOS activity: 2.3 fold
[1]
  prediction (CNS): CNS (+) (classified as a “CNS (+)” molecule if its effective permeability (Pe) in this assay is larger than 4.0 × 10^–6 cm s^–1)
